According to US9873667B2, “Arylsulfanyl compounds and compositions for delivering active agents” (EMISPHERE TECHNOLOGIES INC., priority 2006, dated 2018):

Key:
[1] = tested on: activated partial thromboplastin time (APTT); experiment: Intracolonic delivery of heparin with delivery agent; clotting time (APTT); format: in vivo, male Sprague-Dawley rats; conditions: Delivery Agent 50 mg/kg, USP Heparin 25 mg/kg; for Tmax: time of peak APTT
Description: Oral gavage and/or intracolonic (IC) dosing solutions containing delivery agent compound and heparin sodium USP were prepared in 25% aqueous propylene glycol. Either the sodium salt of the delivery agent compound was used or the free acid was converted to the sodium salt with one equivalent of sodium hydroxide. The delivery agent compound and heparin (about 166-182 IU/mg) were mixed by vortex as dry powders. This dry mixture was dissolved in 25% v/v aqueous propylene glycol, vortexed, and placed in a sonicator (about 37° C.). The pH was adjusted to about 7 (6.5-8.5) with aqueous NaOH (2N). The dosing solution was sonicated to produce a clear solution. The final volume was adjusted to about 3.0 ml.
Male Sprague-Dawley rats weighing between about 275-350 g were fasted for 24 hours and anesthetized with ketamine hydrochloride (88 mg/kg) intramuscularly immediately prior to dosing and again as needed to maintain anesthesia. A dosing group of five animals were administered one of the dosing solutions. For oral gavage dosing, an 11 cm Rusch 8 French catheter was adapted to a 1 ml syringe with a pipette tip. The syringe was filled with dosing solution by drawing the solution through the catheter, which was then wiped dry. The catheter was placed down the esophagus leaving 1 cm of tubing past the incisors. The dosing solution was administered by pressing the syringe plunger.
For intracolonic (IC) dosing, a 7.5 cm, 8 French Rusch catheter was adapted to a 1 ml syringe with a pipette tip. The dosing catheter was inserted into the colon through the anus until the tube was no longer visible. The dosing solution was expressed slowly into the colon by pressing the syringe plunger.
Citrated blood samples were collected by cardiac puncture following the administration of ketamine (88 mg/kg), typically at 0.25, 0.5, 1.0 and 1.5 hours after dosing. Heparin absorption was verified by an increase in clotting time measured by the activated partial thromboplastin time (APTT) according to the method of Henry, J. B., Clinical Diagnosis and Management by Laboratory Methods, Philadelphia, Pa., W.B. Saunders (1979), which is hereby incorporated by reference. Previous studies indicated baseline values of about 20 seconds. Results from the animals in each group were averaged for each time points and the highest of these averages (i.e. mean peak APTT) is reported.

[2] = Oral delivery of caspofungin acetate with delivery agent; plasma caspofungin acetate concentration; format: in vivo, male Sprague-Dawley rats; conditions: Delivery Agent 200 mg/kg, caspofungin acetate: 25 mg/kg
Description: Oral gavage dosing solutions of delivery agent compound and caspofungin acetate (Merck & Co., Whitehouse Station, N.J.) in phosphate buffer were prepared by mixing. A solution of the delivery agent compound was made either with the sodium salt of the delivery agent compound or by converting the free acid to its sodium salt. A solution of the delivery agent compound was prepared in phosphate buffer and stirred, adding one equivalent of sodium hydroxide (1.0 N) when making the sodium salt. The final dosing solutions were prepared by mixing the delivery agent compound solution with a caspofungin acetate stock solution (2.5 ml with a concentration of 100 mg/ml in aqueous solution). The pH was adjusted, if necessary, to between about 7 and 8.8. Male Sprague-Dawley rats weighing between about 250-300 g were fasted for 24 hours. A dosing group of five animals was administered one of the dosing solutions. An 11 cm Rusch 8 French catheter was adapted to a 1 ml syringe with a pipette tip. The syringe was filled with the dosing solution by drawing the solution through the catheter, which was then wiped dry. The catheter was placed down the esophagus leaving 1 cm of tubing past the incisors. The dosing solution was administered by pressing the syringe plunger. Blood samples were collected through retroorbital bleeding at time=0 (pre-dose), 15, 30, 60, 240, and 480 minutes. […]

Blood glucose levels = experiment: Oral delivery of insulin with delivery agent compound; blood glucose by glucometer; format: in vivo, male Sprague-Dawley rats
Description: Insulin stock solution (15 mg/ml) (Human zinc insulin, Calbiochem-Novabiochem Corp., La Jolla, Calif.) was prepared with deionized water. Oral dosing compositions containing 200 mg/kg of delivery agent compound and 0.5 mg/kg of insulin in aqueous solution were prepared with the delivery agent compound shown in Table 1 below. Either the sodium salt of the delivery agent compound was used or the free acid was converted to the sodium salt with one equivalent of sodium hydroxide.
The dosing solution was administered to fasted male Sprague-Dawley rats by oral gavage with an average weight of about 225-250 grams. Blood glucose levels were then determined by glucometer (One Touch Ultra®, LifeScan, Inc.) and compared to vehicle control (1 ml/kg of water). Samples were collected prior to dosing (time 0) and at 15, 30, 45 and 60 minutes after dosing. The % glucose reduction values in Table 1 are values found at the C minimum, and are an average % reduction with respect to the number of times the experiment was run for each delivery agent.
0.5 mg/kg of Insulin and 25-100 mg/kg of delivery agent compound (particular amount shown in Table 2 below) was administered to male Sprague-Dawley rats with an average weight of about 225-250 grams. The purpose of this test was to ascertain the dose response of the delivery agent compound. Glucose reduction was determined as set forth in connection with the data in Table 1.
Insulin Titrations were performed with Delivery Agent 29 in order to gauge the effect of varying dosages of insulin.

[3] = Oral delivery of heparin with delivery agent; plasma heparin concentration; format: in vivo, male Sprague-Dawley rats; conditions: Delivery Agent 200 mg/kg, Heparin 80 mg/kg
[4] = Oral delivery of LHRH with delivery agent; plasma LHRH concentration; format: in vivo, male Sprague-Dawley rats; conditions: Delivery Agent: 200 mg/kg, LHRH: 1 mg/kg
Description: Oral gavage dosing solutions of delivery agent compound and LHRH in phosphate buffer were prepared by mixing. A solution of the delivery agent compound was made either with the sodium salt of the delivery agent compound or by converting the free acid to its sodium salt. A solution of the delivery agent compound was prepared in phosphate buffer and stirred, adding one equivalent of sodium hydroxide (1.0 N) when making the sodium salt. The final dosing solutions were prepared by mixing the delivery agent compound solution with a LHRH stock solution (2.75 ml with a concentration of 20 mg/ml in aqueous solution). The pH was adjusted, if necessary, to between about 7 and 8.8.
Male Sprague-Dawley rats weighing between about 250-300 g were fasted for 24 hours. A dosing group of five animals was administered one of the dosing solutions. An 11 cm Rusch 8 French catheter was adapted to a 1 ml syringe with a pipette tip. The syringe was filled with the dosing solution by drawing the solution through the catheter, which was then wiped dry. The catheter was placed down the esophagus leaving 1 cm of tubing past the incisors. The dosing solution was administered by pressing the syringe plunger.
Blood samples were collected through retroorbital bleeding of approximately 0.4 ml of blood volume using EDTA tubes at time=0 (pre-dose), 2, 10, 15 and 30 minutes. The five samples from each time period were pooled. Previous studies indicated baseline values of about zero. The maximum absorption at the Tmax is reported below in Table 7. As controls, 4-(3-methyl phenoxy) butyric acid (D.A. “B”), the mesylate salt of (4-(8-(2-hydroxyphenoxy)octyl) morpholine (D.A. “C”), 4-(4-(2-hydroxyphenoxy)butyl) morpholine (D.A. “D”), and 4-(6-(2-hydroxyphenoxy)hexyl) morpholine (D.A. “E”) were also administered according to the same protocol and their results are also shown in FIG. 6.

[5] = dose response, Delivery Agent Compound 25 mg/kg, Insulin 0.5 mg/kg
[6] = dose response, Delivery Agent Compound 50 mg/kg, Insulin 0.5 mg/kg
[7] = oral gavage, 200 mg/kg Delivery Agent Compound, 0.5 mg/kg Insulin, value at C minimum vs vehicle control
[8] = dose response, Delivery Agent Compound 100 mg/kg, Insulin 0.5 mg/kg

SMILES: O=C(O)CCCCCCCSc1ccc(O)cc1 [Compound 11, 8-(4-Hydroxy-phenylsulfanyl)-octanoic acid]
- melting point: 94 to 95 °C
- APTT (mean peak) [1]: 300.0 s
- Tmax [1]: 30.0 min

SMILES: COc1ccc(SCCCCC(=O)O)cc1 [Compound 14, 5-(4-Methoxy-phenylsulfanyl)-pentanoic acid]
- Tmax [2]: 60 min

SMILES: O=C(O)CCCCCCCCCSc1ccccc1O [Compound 8, 10-(2-Hydroxy-phenylsulfanyl)-decanoic acid]
- % Glucose Reduction (Blood glucose levels; [5]): −9.7%
- % Glucose Reduction (Blood glucose levels; [6]): −30.5%
- melting point: 58 to 59 °C

SMILES: Cc1ccc(C)c(SCC(=O)O)c1 [Compound 58, (2,5-Dimethyl-phenylsulfanyl)-acetic acid]
- % Glucose Reduction (Blood glucose levels; [7]): −18.2%
- melting point: 73 to 74 °C

SMILES: Cc1ccc(C)c(SCCCC(=O)O)c1 [Compound 7, 4-(2,5-Dimethyl-phenylsulfanyl)-butyric acid]
- Tmax [3]: 60 min
- Tmax [4]: 5 min
- melting point: 61 to 62 °C

SMILES: Cc1ccc(C)c(SCCCCCC(=O)O)c1 [Compound 6, 6-(2,5-Dimethyl-phenylsulfanyl)-hexanoic acid]
- % Glucose Reduction (Blood glucose levels; [6]): −15.8%
- % Glucose Reduction (Blood glucose levels; [8]): −19.2%
- % Glucose Reduction (Blood glucose levels; [7]): −9.8 ± 30.4%
- Tmax [3]: 15 min
- Tmax [4]: 5 min
- melting point: 61 to 62 °C

SMILES: O=C(O)CCCCCCCSc1ccccc1O [Compound 5, 8-(2-Hydroxy-phenylsulfanyl)-octanoic acid]
- % Glucose Reduction (Blood glucose levels; [6]): −13.5%
- % Glucose Reduction (Blood glucose levels; [8]): −18.2%
- Tmax [4]: 5 min
- melting point: 49 to 50 °C

SMILES: COc1ccccc1SCCCCCCCCCC(=O)O [Compound 4, 10-(2-Methoxy-phenylsulfanyl)-decanoic acid]
- Tmax [4]: 5 min
- melting point: 65 to 66 °C

SMILES: O=C(O)CCCCCSc1ccc(O)cc1 [Compound 35, 6-(4-Hydroxy-phenylsulfanyl)-hexanoic acid]
- melting point: 92 to 94 °C
- APTT (mean peak) [1]: 100.0 s
- Tmax [1]: 30.0 min

SMILES: COc1ccccc1SCCCCCC(=O)O [Compound 3, 6-(2-Methoxy-phenylsulfanyl)-hexanoic acid]
- Tmax [4]: 5 min
- melting point: 81 to 82 °C

SMILES: Cc1ccc(C)c(SCCCCCCCC(=O)O)c1 [Compound 2, 8-(2,5-Dimethyl-phenylsulfanyl)-octanoic acid]
- % Glucose Reduction (Blood glucose levels; [5]): −10.0%
- Tmax [3]: 45 min
- melting point: 60 to 63 °C

SMILES: COc1ccccc1SCCCCCCCC(=O)O [Compound 1, 8-(2-Methoxy-phenylsulfanyl)-octanoic acid]
- % Glucose Reduction (Blood glucose levels; [7]): −0.2%
- Tmax [4]: 5 min
- melting point: 62 to 63 °C
- APTT (mean peak) [1]: 180 s
- Tmax [1]: 30 min

SMILES: O=C(O)CCCSc1ccc(Cl)cc1 [Compound 34, 4-(4-Chloro-phenylsulfanyl)-butyric acid]
- melting point: 100 to 101 °C

SMILES: O=C(O)CCCSc1ccccc1O [Compound 12, 4-(2-Hydroxy-phenylsulfanyl)-butyric acid]
- melting point: 77 to 78 °C
